# Experimental data taken from US7276352B2, “Induction of β cell differentiation in human cells by stimulation of the GLP-1 receptor” (The Regents of the University of California, priority 2000, dated 2007).
# How the values were obtained:
# βlox5 cells [1] = assay: RT-PCR analysis of pancreatic hormone gene expression in βlox5 cells; type: cell-based, human; settings: for hormone expression in βlox5 cells: βlox5 cells expressing PDX-1, data not shown
# Excerpt: FIG. 2: RT-PCR analysis of pancreatic hormone gene expression in βlox5. The conditions tested were βlox5 cells grown in monolayer culture, βlox5 cells infected with a retroviral vector expressing PDX-1, βlox5 cells grown as three-dimensional aggregates, and βlox5 cells treated with exendin-4. FIG. 2(A) insulin; FIG. 2(B) quantitative RT-PCR analysis of insulin gene expression; FIG. 2(C) other pancreatic hormones. Aggregation of cells into three-dimensional clusters and the retroviral vector expressing PDX-1 have been described previously (Itkin-Ansari et al., submitted). Exendin-4 (Sigma) was used at a concentration of 10 nM. RT-PCR for insulin, somatostatin, glucagon, and IAPP have been described previously (Itkin-Ansari et al., submitted). Quantitative RT-PCR was done by interpolation from a standard curve constructed using a plasmid containing the human insulin cDNA.
# PDX-1 also acted synergistically with cell-cell contact to further increase the level of […] expression about 1,000-fold above the cells not expressing PDX-1, to a level similar to that found in normal human islets. To determine whether βlox5 could be induced to express pancreatic hormones, recombinant PDX-1 was expressed in βlox5 using a retroviral vector. […] Therefore, other factors were examined for their ability to induce hormone expression in βlox5 cells expressing PDX-1. Activin and betacellulin have been reported to be able to induce endocrine differentiation in cell lines and primary cells (Mashima et al., Diabetes 48:304-9 (1999), Huotari et al., Endocrinology 139, 1494-9 (1998), Mashima et al., J Clin Invest 97:1647-54 (1996), Yamaoka et al, J Clin Invest 102:294-301 (1998)). However, they had no effect on hormone expression in βlox5 cells (data not shown).
# GLP-1, a small peptide cleaved from the proglucagon molecule, is an insulin secretogogue Drucker et al., Diabetes 47:159-69 (1998)).
# By itself, exendin-4 had no effect on hormone expression in βlox5 (FIG. 2A, lane 8). […] The nature of the interaction between exendin-4, cell-cell contact, and PDX-1 is evident from the fact that no hormone mRNA was detectable with any one or two of the three inducing factors (FIG. 2A). […] Islet amyloid polypeptide (IAPP) mRNA, a hormone that is co-secreted with insulin, was also expressed in induced βlox5 cells (FIG. 2C, lane 2). However, the other major pancreatic hormones, glucagon, somatostatin, and pancreatic polypeptide (PP), were not induced (FIG. 2C).
# βlox5 cells [2] = assay: Analysis of transcription factors expressed in βlox5 cells (RT-PCR, Western blot); type: cell-based, human
# Experimental: FIG. 3: Analysis of transcription factors expressed in βlox5 cells. FIG. 3(A) electrophoretic mobility shift assay (EMSA) of PDX-1. EM5A for PDX-1 was performed using a probe derived from the human insulin promoter A5 element. FIGS. 3(B&C) RT-PCR analysis of BETA2 and Pax6. FIG. 3(D) Western blot analysis of CREB. FIG. 3(E) EMSA of RIPE3b.
# The expression of transcription factors important in β-cell development was examined to determine whether they had been induced by PDX-1, cell-cell contact, and exendin-4. […] GLP-1 has been reported to increase cAMP levels and this has been thought to be a major mechanism by which GLP-1 acts as an insulin secretogogue (Serre et al., Endocrinology 139:4448-54 (1998)). […] RIPE3b, a factor that plays a critical role in insulin gene expression but that has not yet been cloned, is expressed in βlox5 irrespective of PDX-1, cell-cell contact, or exendin-4 (FIG. 3E).
# [3] = induced βlox5 cells (PDX-1, cell-cell contact, exendin-4 10 nM)
Molecule,hormone expression in βlox5 cells (βlox5 cells [1]),"hormone expression in βlox5 (βlox5 cells [1]; exendin-4 by itself, 10 nM, four days, no PDX-1, no aggregation)",Islet amyloid polypeptide (IAPP) mRNA (βlox5 cells [1]; [3]),"glucagon, somatostatin and pancreatic polypeptide (PP) expression (βlox5 cells [1]; [3])","insulin mRNA (βlox5 cells [1]; βlox5 cells expressing PDX-1, suspension culture as three-dimensional aggregates, 10 nM exendin-4 for four days)","BETA2 expression (βlox5 cells [2]; PDX-1, cell-cell contact and exendin-4, RT-PCR)","CREB expression (βlox5 cells [2]; exendin-4 alone, independently of cell-cell contact and PDX-1, Western blot)"
Activin,no effect,–,–,–,–,–,–
exendin-4,–,no effect,expressed,not induced,substantial amount of insulin mRNA was detectable,induced only by the combination of all three inducing factors,induced
"betacellulin (protein, UniProt P35070 32-111, looked up, factor reported to be able to induce endocrine differentiation in cell lines and primary cells) Betacellulin: DGNSTRSPETNGLLCGDPEENCAATTTQSKRKGHFSRCPKQYKHYCIKGRCRFVVAEQTPSCVCDEGYIGARCERVDLFY",no effect,–,–,–,–,–,–
